Measured values from US9573954B2, “Pyrazolopyrimidine compounds” (University Health Network, priority 2012, dated 2017).
pIC50: −log10 of the molar value.

Columns and labels:
human TTK = molecular target: T1, human TTK (Homo sapiens, UniProt P33981); assay: TTK inhibition assay (indirect ELISA); format: biochemical; details: 100 μM ATP; read-out: TTK IC50 Range
T1 construct: Active TTK was purchased from Invitrogen as an amino terminal GST fusion of full length human TTK; purchased Invitrogen
T1 sequence (P33981 1-857): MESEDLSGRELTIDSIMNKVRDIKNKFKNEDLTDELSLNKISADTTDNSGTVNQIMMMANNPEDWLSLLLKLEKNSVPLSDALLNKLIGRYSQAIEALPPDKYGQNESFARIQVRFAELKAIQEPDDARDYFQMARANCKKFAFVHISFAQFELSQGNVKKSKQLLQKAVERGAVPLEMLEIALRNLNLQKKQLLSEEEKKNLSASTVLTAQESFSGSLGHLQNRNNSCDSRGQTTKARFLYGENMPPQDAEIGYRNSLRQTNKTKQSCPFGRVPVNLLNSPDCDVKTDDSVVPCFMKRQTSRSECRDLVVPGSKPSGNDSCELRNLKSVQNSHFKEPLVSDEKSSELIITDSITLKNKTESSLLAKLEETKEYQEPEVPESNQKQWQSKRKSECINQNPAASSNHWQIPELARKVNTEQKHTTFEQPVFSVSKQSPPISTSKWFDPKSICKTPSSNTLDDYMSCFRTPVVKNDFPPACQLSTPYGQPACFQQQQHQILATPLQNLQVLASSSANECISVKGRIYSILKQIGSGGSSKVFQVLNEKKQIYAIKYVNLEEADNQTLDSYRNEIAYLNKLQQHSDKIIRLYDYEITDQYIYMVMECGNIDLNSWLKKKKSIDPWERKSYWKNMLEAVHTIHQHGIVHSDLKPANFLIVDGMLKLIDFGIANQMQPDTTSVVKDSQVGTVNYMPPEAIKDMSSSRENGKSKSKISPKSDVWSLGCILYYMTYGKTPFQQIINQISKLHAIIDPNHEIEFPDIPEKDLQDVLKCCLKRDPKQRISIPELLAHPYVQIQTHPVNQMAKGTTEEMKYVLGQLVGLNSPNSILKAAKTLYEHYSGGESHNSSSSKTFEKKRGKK
Summary of the method: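 Activity detected by indirect ELISA after compounds sat with full-length GST-TTK for 5 min prior to starting the reaction with ATP. IC50 came from a four-parameter logistic curve of % inhibition, calculated against background and uninhibited control wells.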

[1] = tested on: colon cancer cells (HCT116); assay: Cancer cell line growth inhibition, Sulforhodamine B assay, HCT116; format: cell-based; details: Homo sapiens, HCT-116, HCT116 colon cancer cell line; read-out: Cancer Cell Line GI50 Range HCT116
Summary of the method: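 HCT116 cells, 1000–4000 per well, seeded 24 h ahead, then treated 5 days with compound at 10 nM to 50 μM final in DMEM with 10% FBS. Growth measured by sulforhodamine B staining after TCA fixation, A570; GI50 from inhibition relative to DMSO-only cells.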

[2] = tested on: breast cancer cells (MDA-MB-468); assay: Cancer cell line growth inhibition, Sulforhodamine B assay, MDA-MB-468; format: cell-based; details: Homo sapiens, MDA-MB-468, MDA-MB-468 breast cancer cell line; read-out: Cancer Cell Line GI50 Range MDA-MB-468
Summary of the method: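 MDA-MB-468 cells exposed 5 days to compound at final 10 nM to 50 μM in DMEM with 10% FBS. Growth measured by sulforhodamine B protein staining after TCA fixation, absorbance 570 nm; inhibition relative to DMSO-only cells, GI50 determined for cytotoxic compounds.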

[3] = tested on: ovarian cancer cells (OVCAR-3); assay: Cancer cell line growth inhibition, Sulforhodamine B assay, OVCAR-3; format: cell-based; details: Homo sapiens, OVCAR-3, OVCAR-3 ovarian cancer cell line; read-out: Cancer Cell Line GI50 Range OVCAR-3
Summary of the method: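 OVCAR-3 cells were seeded 24 h before compound addition, then exposed for 5 days to final concentrations of 10 nM to 50 μM in DMEM with 10% FBS. Growth was measured by TCA fixation and sulforhodamine B staining with absorbance at 570 nm. Inhibition was relative to DMSO-only cells, and GI50 came from curve fitting.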

[4] = tested on: Ovarian 2393A tumor initiating cells; assay: Tumor-initiating cell growth inhibition, Alamar Blue assay, ovarian TICs; format: cell-based; details: 144 h; Ovarian 2393A TICs, 6 days; read-out: Tumor Initiating Cell GI50 Range Ovarian 2393A
Text: (§1) Non-tissue or tissue cultured treated T-75 flask and 96-well plates were purchased from VWR. Vitamin B-27 supplement, MEM NEAA (minimum essential medium non essential amino acids), sodium pyruvate, L-glutamine, N2 supplement, penicillin-streptomycin and fungizone/amphotericin B were obtained from Invitrogen. Lipid mixture, heparin and EGF were purchased from Sigma; bFGF from BD Biosciences. Tumor Initiating Cells (TICs) from colon were routinely maintained using non-tissue cultured treated T-75 flasks in DMEM:F12 medium containing 0.2XB-27 supplement, 4 ug/ml heparin, 1×MEM NEAA, 1×sodium pyruvate, 1 mM glutamine, 10 pg/ul bFGF, 20 pg/ul EGF, 1× N2 supplement, lipid mixture, penicillin-streptomycin and fungizone/amphotericin B. Ovarian TICs were routinely maintained using tissue cultured treated T-75 flasks in DMEM:F12 medium containing IXB-27 supplement, 4 ug/ml heparin, 20 pg/ul bFGF, 20 pg/ul EGF and penicillin-streptomycin.
(§2) Compounds described herein were dissolved in DMSO and further diluted in cell culture medium for GI50 determination. Colon TICs were trypsinized and seeded into non-tissue cultured treated 96-well plates with 4,000 cells/well. After 24 h, compound was added into the cell culture at different concentrations, and the final concentration of DMSO was adjusted to 0.1%. Cells were then cultured at 37° C. for 9 days. Ovarian TICs were trypsinized and seeded into tissue cultured treated 96-well plates with 1,000 cells/well. After 24 h, compound was added into the cell culture at different concentrations, and the final concentration of DMSO was adjusted to 0.1%. Cells were then cultured at 37° C. for 6 days. Cell viability was assessed by Alamar Blue assay: 10 ul of Alamar Blue was added into each well. After 4 hours incubation at 37° C., fluorescence was recorded at excitation 544 and emission 590. GI50 (Growth inhibition) was calculated using GraphPad Prism 4.0 software.
(§3) In Table 1 below, GI50 value ranges for compound examples against TICs (Colon 12 and Ovarian 2393A) are given.

[5] = tested on: Colon 12 tumor initiating cells; assay: Tumor-initiating cell growth inhibition, Alamar Blue assay, colon TICs; format: cell-based; details: 216 h; Colon 12 TICs, 9 days; read-out: Tumor Initiating Cell GI50 Range Colon 12
Text: as §1, §2, §3

| Structure (SMILES) | pIC50 (human TTK) | GI50 [1] [nM] | GI50 [2] [nM] | GI50 [3] [nM] | GI50 [4] [nM] | GI50 [5] [nM] |
| --- | --- | --- | --- | --- | --- | --- |
| Cc1cc(-c2cnn3c(NCC4CCOCC4)cc(N[C@H]4CCCC[C@H]4O)nc23)ccc1C(=O)NC1CC1 [Example C39, N-cyclopropyl-4-(5-(((1S,2R)-2-hydroxycyclohexyl)amino)-7-(((tetrahydro-2H-pyran-4-yl)methyl)amino)pyrazolo[1,5-a]pyrimidin-3-yl)-2-methylbenzamide] | > 7.00 | ≤ 100 | ≤ 100 | ≤ 100 | ≤ 100 | ≤ 100 |
| Cc1cc(-c2cnn3c(NCC4CCOCC4)cc(N[C@@H](C(C)C)C(C)(C)O)nc23)ccc1C(=O)NC1CC1 [Example C40, (S)-N-cyclopropyl-4-(5-((2-hydroxy-2,4-dimethylpentan-3-yl)amino)-7-(((tetrahydro-2H-pyran-4-yl)methyl)amino)pyrazolo[1,5-a]pyrimidin-3-yl)-2-methylbenzamide] | > 7.00 | ≤ 100 | ≤ 100 | 100 to 500 | 100 to 500 | ≤ 100 |
| Cc1cc(-c2cnn3c(NCC4CCOCC4)cc(N[C@@H](C4CC4)C(C)(C)O)nc23)ccc1C(=O)NC1CC1 [Example C41, (S)-N-cyclopropyl-4-(5-((1-cyclopropyl-2-hydroxy-2-methylpropyl)amino)-7-(((tetrahydro-2H-pyran-4-yl)methyl)amino)pyrazolo[1,5-a]pyrimidin-3-yl)-2-methylbenzamide] | > 7.00 | ≤ 100 | ≤ 100 | ≤ 100 | 100 to 500 | ≤ 100 |
| Cc1cc(-c2cnn3c(NCC4CC4)cc(N[C@H]4CCCC[C@H]4O)nc23)ccc1C(=O)NC1CC1 [Example C42, N-cyclopropyl-4-(7-((cyclopropylmethyl)amino)-5-(((1S,2R)-2-hydroxycyclohexyl)amino)pyrazolo[1,5-a]pyrimidin-3-yl)-2-methylbenzamide] | > 7.00 | ≤ 100 | ≤ 100 | ≤ 100 | ≤ 100 | ≤ 100 |
| Cc1cc(-c2cnn3c(NCC4CCOCC4)cc(NC4(CO)CCCC4)nc23)ccc1C(=O)NC1CC1 [Example C45] | > 7.00 | ≤ 100 | ≤ 100 | ≤ 100 | 100 to 500 | ≤ 100 |
| Cc1cc(-c2cnn3c(NCC4CCN(C)CC4)cc(Oc4cccc(F)c4)nc23)ccc1C(=O)NC1CC1 [Example C46, N-cyclopropyl-4-(5-(3-fluorophenoxy)-7-(((1-methylpiperidin-4-yl)methyl)amino)pyrazolo[1,5-a]pyrimidin-3-yl)-2-methylbenzamide] | > 7.00 | ≤ 100 | ≤ 100 | 100 to 500 | ≤ 100 | ≤ 100 |
| Cc1cc(-c2cnn3c(NCC4CCOCC4)cc(N[C@H]4CC[C@H](O)CC4)nc23)ccc1C(=O)NC1CC1 [Example C48] | > 7.00 | 100 to 500 | 100 to 500 | 100 to 500 | 100 to 500 | 100 to 500 |
| Cc1cc(-c2cnn3c(NCC4COC4)cc(Oc4cccnc4)nc23)ccc1C(=O)NC1CC1 [Example C100] | > 7.00 | 100 to 500 | 100 to 500 | 100 to 500 | ≤ 100 | ≤ 100 |
| Cc1cc(-c2cnn3c(NCC4CCOCC4)cc(OC4CCN(C5COC5)C4)nc23)ccc1C(=O)NC1CC1 (stereo not drawn) [Example C116] | > 7.00 | ≤ 100 | 100 to 500 | 100 to 500 | 100 to 500 | 100 to 500 |
| Cc1cc(-c2cnn3c(NCC4CCOCC4)cc(N[C@@H]4CCCC[C@@H]4O)nc23)ccc1C(=O)NC1CC1 [Example C118] | > 7.00 | ≤ 100 | 100 to 500 | 100 to 500 | 100 to 500 | 100 to 500 |
| Cc1cc(-c2cnn3c(NCC4CCOCC4)cc(N[C@H]4CCN(C5COC5)C4)nc23)ccc1C(=O)NC1CC1 [Example C120] | > 7.00 | 100 to 500 | 100 to 500 | > 500 | > 500 | > 500 |
| Cc1cc(-c2cnn3c(NCC4CCOCC4)cc(N[C@H](CO)CC(C)C)nc23)ccc1C(=O)NC1CC1 [Example C130] | > 7.00 | ≤ 100 | 100 to 500 | 100 to 500 | ≤ 100 | ≤ 100 |
| Cc1cc(-c2cnn3c(NC[C@H]4C[C@H](O)C4)cc(Oc4cccnc4)nc23)ccc1C(=O)NC1CC1 [Example C144] | > 7.00 | ≤ 100 | ≤ 100 | ≤ 100 | ≤ 100 | ≤ 100 |
| Cc1cc(-c2cnn3c(NC[C@H]4C[C@H](O)C4)cc(NC4CCOCC4)nc23)ccc1C(=O)NC1CC1 [Example C145] | > 7.00 | 100 to 500 | 100 to 500 | 100 to 500 | 100 to 500 | 100 to 500 |
| Cc1cc(-c2cnn3c(NCC4(F)CCNCC4)cc(Oc4cccc(F)c4)nc23)ccc1C(=O)NC1CC1 [Example C146] | > 7.00 | ≤ 100 | ≤ 100 | 100 to 500 | ≤ 100 | ≤ 100 |
| Cc1cc(-c2cnn3c(NCC4CCOCC4)cc(-c4ccncc4)nc23)ccc1C(=O)NC1CC1 [Example C150] | > 7.00 | 100 to 500 | 100 to 500 | 100 to 500 | 100 to 500 | 100 to 500 |
| Cc1cc(-c2cnn3c(NCC4CCOCC4)cc(N[C@H](CO)C4CCCC4)nc23)ccc1C(=O)NC1CC1 [Example C165] | > 7.00 | ≤ 100 | 100 to 500 | 100 to 500 | 100 to 500 | ≤ 100 |
| Cc1cc(-c2cnn3c(NC[C@H]4CC[C@@H](O)CC4)cc(Oc4cccnc4)nc23)ccc1C(=O)NC1CC1 [Example C176] | > 7.00 | ≤ 100 | ≤ 100 | ≤ 100 | ≤ 100 | ≤ 100 |
